Data as given in ChEMBL document CHEMBL4017466, “Efficient synthesis of a multi-substituted diphenylmethane skeleton as a steroid mimetic” (Bioorg Med Chem Lett, 2017).
Activity calls are given as the source filed them. The rule behind the calls is not given here.

Key:
[1] = target: T1, Estrogen receptor (Homo sapiens, UniProt P03372); assay: Antagonist activity at CMX-GAL4N fused human ERalpha expressed in HEK293 cells assessed as reduction in E2 induced response by luciferase reporter gene assay; format: cell-based
T1 sequence (P03372 whole entry): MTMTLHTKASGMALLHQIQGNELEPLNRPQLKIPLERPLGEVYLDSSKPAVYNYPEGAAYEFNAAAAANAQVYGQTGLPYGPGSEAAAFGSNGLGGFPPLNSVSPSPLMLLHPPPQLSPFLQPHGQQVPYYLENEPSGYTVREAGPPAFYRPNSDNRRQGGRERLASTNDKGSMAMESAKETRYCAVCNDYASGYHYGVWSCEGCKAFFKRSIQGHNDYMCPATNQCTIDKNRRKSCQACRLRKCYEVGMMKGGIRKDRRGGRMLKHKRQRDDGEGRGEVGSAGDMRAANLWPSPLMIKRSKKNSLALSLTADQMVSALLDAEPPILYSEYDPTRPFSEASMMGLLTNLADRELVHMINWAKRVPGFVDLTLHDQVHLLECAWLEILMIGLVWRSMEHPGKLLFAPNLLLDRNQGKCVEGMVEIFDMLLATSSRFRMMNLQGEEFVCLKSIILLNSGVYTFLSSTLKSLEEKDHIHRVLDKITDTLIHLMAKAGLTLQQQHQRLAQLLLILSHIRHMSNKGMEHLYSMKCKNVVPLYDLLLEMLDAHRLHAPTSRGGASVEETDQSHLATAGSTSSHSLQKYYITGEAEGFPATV

[2] = target: T2, Estrogen receptor (Homo sapiens) (UniProt P03372); assay: Antagonist activity at CMX-GAL4N fused human ERalpha expressed in HEK293 cells assessed as reduction in E2 induced response at 10 to 10^4 nM by luciferase reporter gene assay; format: cell-based
T2 sequence (whole entry): T1 sequence (P03372 whole entry)

Row | Compound | IC50 [1] [nM] | Activity [2]
1 | CCCC(CCC)(c1ccc(OCCN(C)C)c(C)c1)c1ccc(O)c(O)c1 | 225 | 
2 | CCCC(CCC)(c1ccc(O)c(C)c1)c1ccc(O)c(O)c1 | 158 | 
3 | CCCC(CCC)(c1ccc(O)c(C)c1)c1ccc(OC(C)=O)c(OC(C)=O)c1 |  | Active
4 | CCCC(CCC)(c1ccc(O)c(C)c1)c1ccc(OCCN(C)C)c(C)c1 | 134 | 
5 | CCC(CC)(c1ccc(O)c(C)c1)c1ccc(O)c(O)c1 | 664 | 
6 | CCCC(CCC)(c1ccc(O)c(C)c1)c1cc(C)c(O)c(O)c1 | 271 | 
7 | CCCC(CCC)(c1ccc(O)c(C)c1)c1ccc(O)c(C)c1 | 2.22 | 
8 | CCCC(CCC)(c1ccc(O)cc1)c1ccc(O)c(O)c1 | 63.2 | 
9 | CCC(CC)(c1ccc(O)cc1)c1ccc(O)c(O)c1 | 154 | 
